Assay results reported in PubChem BioAssay (NCI).
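Interpolation was linear, between the two tested concentrations surrounding the appropriate level; five concentrations were tested over 48 hours in 96-well plates. Definition used: TGI = concentration required for complete inhibition of growth.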

How the values were obtained:
Experiment in all cases: NCI tumour cell line growth inhibition, 48 h
[1] = tested on: NCI-H226 lung
[2] = tested on: SK-OV-3 ovarian
[3] = tested on: K-562 leukemia
[4] = tested on: HCT-15 colon
[5] = tested on: ACHN renal
[6] = tested on: KM12 colon
[7] = tested on: MOLT-4 leukemia
[8] = tested on: SK-MEL-5 melanoma
[9] = tested on: LOX IMVI melanoma
[10] = tested on: RPMI-8226 leukemia
[11] = tested on: MCF7 breast
[12] = tested on: SF-268 CNS
[13] = tested on: NCI/ADR-RES ovarian
[14] = tested on: CCRF-CEM leukemia
[15] = tested on: SN12C renal
[16] = tested on: HCC-2998 colon
[17] = tested on: SK-MEL-2 melanoma
[18] = tested on: A498 renal
[19] = tested on: IGROV1 ovarian
[20] = tested on: UO-31 renal
[21] = tested on: M14 melanoma
[22] = tested on: CAKI-1 renal
[23] = tested on: SNB-19 CNS
[24] = tested on: OVCAR-5 ovarian
[25] = tested on: 786-0 renal
[26] = tested on: MDA-MB-435
[27] = tested on: HT29 colon
[28] = tested on: SR leukemia
[29] = tested on: U251 CNS
[30] = tested on: SF-539 CNS
[31] = tested on: COLO 205 colon
[32] = tested on: OVCAR-4 ovarian
[33] = tested on: DU-145 prostate
[34] = tested on: OVCAR-8 ovarian
[35] = tested on: UACC-62 melanoma
[36] = tested on: HOP-92 NSCLC
[37] = tested on: MDA-N
[38] = tested on: SNB-75 CNS
[39] = tested on: HL-60(TB) leukemia
[40] = tested on: NCI-H460 lung
[41] = tested on: SF-295 CNS
[42] = tested on: OVCAR-3 ovarian
[43] = tested on: NCI-H23 lung
[44] = tested on: PC-3 prostate
[45] = tested on: HOP-62 NSCLC
[46] = tested on: T-47D breast
[47] = tested on: RXF 393 renal
[48] = tested on: A549 NSCLC
[49] = tested on: TK-10 renal
[50] = tested on: MALME-3M melanoma
[51] = tested on: SW-620 colon
[52] = tested on: SK-MEL-28 melanoma
[53] = tested on: BT-549 breast
[54] = tested on: EKVX NSCLC
[55] = tested on: MDA-MB-231 breast
[56] = tested on: HCT-116 colon
[57] = tested on: UACC-257 melanoma
[58] = tested on: HS 578T breast
[59] = tested on: NCI-H522 lung

CC1(c2ccc(F)cc2)CC(c2ccc(F)cc2)=C(C#N)C(=C(C#N)C#N)N1 (stereo unspecified) showed a TGI [1] of 82.1 µM, a TGI [2] of 37.3 µM and a TGI [3] of 38.1 µM. The TGI [4] was 31.7 µM, the TGI [5] was 30.2 µM and the TGI [6] was 30.1 µM. The TGI [7] was 34.8 µM, the TGI [8] was 28.5 µM and the TGI [9] was 38.6 µM. The TGI [10] was over 100 µM, the TGI [11] was 32.5 µM and the TGI [12] was 37 µM. The TGI [13] was 48.4 µM, the TGI [14] was 64.5 µM and the TGI [15] was 34.5 µM. For the same molecule, the TGI [16] was 28.2 µM, the TGI [17] was 34.4 µM and the TGI [18] was 35.8 µM. The TGI [19] was 32.3 µM, the TGI [20] was 32 µM and the TGI [21] was 35.6 µM. The TGI [22] was 30.2 µM, the TGI [23] was 35.1 µM and the TGI [24] was 38.5 µM. The TGI [25] was 29.3 µM, the TGI [26] was 32 µM and the TGI [27] was 32.1 µM. The TGI [28] was 42.2 µM, the TGI [29] was 31.5 µM and the TGI [30] was 78.4 µM. The TGI [31] was 27.9 µM, the TGI [32] was 31.3 µM and the TGI [33] was 28.5 µM. For the same molecule, the TGI [34] was 54 µM, the TGI [35] was 28.1 µM and the TGI [36] was 34.9 µM. For the same molecule, the TGI [37] was 34.3 µM, the TGI [38] was 34.2 µM and the TGI [39] was 30.7 µM. The TGI [40] was 38.2 µM, the TGI [41] was 37.1 µM and the TGI [42] was 19.4 µM. It also gave a TGI [43] of 36.5 µM, a TGI [44] of 31.4 µM and a TGI [45] of 38.6 µM. The TGI [46] was 31.7 µM, the TGI [47] was 28.3 µM and the TGI [48] was 41.7 µM. For the same molecule, the TGI [49] was 32.2 µM, the TGI [50] was 37.2 µM and the TGI [51] was 62.1 µM. For the same molecule, the TGI [52] was 47.3 µM, the TGI [53] was 53 µM and the TGI [54] was 31.5 µM. For the same molecule, the TGI [55] was 43.9 µM, the TGI [56] was 30.5 µM and the TGI [57] was 28.9 µM. It also gave a TGI [58] of 64.1 µM.
COc1cc2cc(C(=O)N3CC(CCl)c4c3cc([N+](=O)[O-])c3ccccc43)[nH]c2c(OC)c1OC (stereo unspecified) gave a TGI [1] of over 100 µM, a TGI [2] of over 100 µM and a TGI [3] of over 100 µM. It also gave a TGI [4] of over 100 µM, a TGI [5] of over 100 µM and a TGI [6] of over 100 µM. For the same molecule, the TGI [59] was over 100 µM, the TGI [7] was over 100 µM and the TGI [8] was over 100 µM. The TGI [9] was over 100 µM, the TGI [10] was over 100 µM and the TGI [11] was over 100 µM. It also gave a TGI [12] of over 100 µM, a TGI [13] of over 78.3 µM and a TGI [14] of over 100 µM. The TGI [15] was over 100 µM, the TGI [16] was over 100 µM and the TGI [17] was over 100 µM. The TGI [18] was 97.6 µM, the TGI [19] was over 100 µM and the TGI [20] was over 100 µM. It also gave a TGI [21] of over 100 µM, a TGI [22] of over 100 µM and a TGI [23] of over 100 µM. It also gave a TGI [24] of over 100 µM, a TGI [25] of over 100 µM and a TGI [26] of over 100 µM. For the same molecule, the TGI [27] was over 100 µM, the TGI [28] was 19.1 µM and the TGI [29] was over 100 µM. The TGI [30] was over 100 µM, the TGI [31] was over 100 µM and the TGI [32] was over 100 µM. It also gave a TGI [33] of over 100 µM, a TGI [34] of over 100 µM and a TGI [35] of over 100 µM. It also gave a TGI [36] of over 100 µM, a TGI [37] of over 100 µM and a TGI [38] of over 100 µM. For the same molecule, the TGI [40] was over 63.8 µM, the TGI [41] was 97.7 µM and the TGI [42] was over 100 µM. The TGI [43] was over 100 µM, the TGI [44] was over 100 µM and the TGI [45] was over 100 µM. It also gave a TGI [46] of over 100 µM, a TGI [47] of over 100 µM and a TGI [48] of over 100 µM. The TGI [49] was over 100 µM, the TGI [50] was over 100 µM and the TGI [51] was over 100 µM. It also gave a TGI [52] of over 100 µM, a TGI [53] of over 100 µM and a TGI [54] of over 100 µM. For the same molecule, the TGI [55] was over 100 µM, the TGI [56] was over 100 µM and the TGI [57] was over 100 µM. The TGI [58] was over 100 µM.
